In patent publication US6486197B1, “Substance ft-0554 and process for producing the same” (The Kitasato Institute, priority 1997, dated 2002):

Assays:
Candida albicans KF1 = test: Paper disk antimicrobial activity; type: cell-based; design: unit not given here; settings: 1 mg/ml 10 μl on 6 mm paper disk, 24 hours
[1] = test system: Mucor racemosus KF223 (IFO 4581); test: Paper disk antimicrobial activity; type: cell-based; design: unit not given here; settings: 1 mg/ml 10 μl on 6 mm paper disk, 24 hours

Which results are given for `CCC(C)/C=C/C=C(\C)CC(C)/C=C/C=C/C1OC(=O)C(O)C2OC12C` (centres unmarked) [FT-0554 substance]?
inhibition zone diameter (Candida albicans KF1): 12; inhibition zone diameter [1]: 10
